# According to patent US20240034743A9, “TRICYCLIC COMPOUNDS AS EGFR INHIBITORS” (QILU PHARMACEUTICAL CO., LTD., priority 2020, published 2024):
# Read-outs that look alike come from different tables or passages of the source.
# Columns and labels:
# [1] = molecular target: EGFR WT (wild type EGFR) (Homo sapiens (Human), UniProt P00533); experiment: In vitro enzymatic TR-FRET (HTRF KinEASE-TK) kinase assay, EGFR WT; assay type: biochemical; conditions: kinase activity, TR-FRET; read-out: EGFR (WT) IC50
# Method: (I) In Vitro Enzymatic Experiment for EGFR WT and EGFR L858R/T790M/C797S
# In the assay, the inhibition effect of the compound on the kinase activity of EGFR WT (wild type EGFR) and EGFR L858R/T790M/C797S was tested by adopting a time-resolved fluorescence resonance energy transfer (TR-FRET) method, and half maximal inhibitory concentration IC50 of the compound on the kinase activity of EGFR was obtained.
# EGFR recombinase and EGFR L858R/T790M/C797S recombinase, purchased from Signalchem.
# HTRF KinEASE-TK kit, purchased from Cisbio.
# DTT, MnCl2, and MgCl2, purchased from Sigma.
# ATP, purchased from Promega.
# (§1) Brigatinib, purchased from Selleck.
# 1) 1× working solution was prepared: 5 mM MgCl2; 1 mM DTT; 1 mM MnCl2 and 1× kinase buffer (in kit).
# 2) […] of gradiently-diluted compound was transferred to a 384-well plate using Echo 550 (Labcyte).
# 3) 5 μL of 2× EGFR WT or EGFR L858R/T790M/C797S recombinase solution was added to the 384-well plate, and the plate was incubated at room temperature for 10 min.
# 4) 5 μL of 2× TK-substrate-biotin substrate solution (containing ATP) was added to the 384-well plate, and the plate was incubated at room temperature for 40 min.
# 5) 5 μL of assay solution containing Sa-XL 665 HTRF and 5 μL of TK-antibody-Cryptatewas were added to the plate, and the plate was incubated at room temperature for 1 h.
# 6) The fluorescence signal values at 615 nm and 665 nm were measured for each well using an Envision microplate reader (PerkinElmer).
# 7) The ratio of fluorescence signal values at 665 nm and 615 nm was calculated for each well.
# 8) Data analysis was performed using GraphPad Prism software to give the IC50 for compounds.
# [2] = test system: Ba/F3_Del19/T790M/C797S cells; experiment: Ba/F3_Del19/T790M/C797S cell proliferation inhibition assay (CellTiter-Glo); assay type: cell-based; conditions: Mus musculus
# Method: Ba/F3_Del19/T790M/C797S Cell Proliferation Inhibition Assay
# In the assay, the inhibition effect of the compounds on the proliferation of Ba/F3_Del19/T790M/C797S cells was tested by adopting a CellTiter-Glo method, and the concentration IC50 of the compound for inhibiting half maximal growth of cells was obtained.
# Ba/F3_Del19/T790M/C797S, purchased from Kyinno Biotechnology Co., Ltd. 1640 medium, fetal bovine serum (FBS), Penicillin-Streptomyces, and GlutaMAX-I Supplement, purchased from GIBCO.
# as §1
# (§2) CellTiter-Glo reagent, purchased from Promega.
# 1) Ba/F3_Del19/T790M/C797S cells were seeded in a 384-well plate at a density of 700 cells/well with 30 μL/well.
# (§3) 2) Day 0: […] of gradiently-diluted compounds to be tested with a final concentration of DMSO of 0.1% was added to plate using Echo, and the plate was incubated in a cell incubator for 72 h (37° C., 5% CO2). […] of DMSO was added into each well in blank control group.
# (§4) 3) Day 3: 30 μL Cell Titer-Glo reagent was added to each well, and the plate was in the dark under room temperature for 30 min.
# (§5) 4) The chemiluminescent signal was detected by an Envision plate reader (PerkinElmer).
# Data analysis was performed using GraphPad Prism 6 software to give the IC50 for compounds.
# [3] = test system: A431 cells (EGFR WT); experiment: A431 cell proliferation inhibition assay (CellTiter-Glo); assay type: cell-based; conditions: Homo sapiens
# Method: A431 Cell Proliferation Inhibition Assay
# In the assay, the inhibition effect of the compounds on the proliferation of A431 cells was tested by adopting a CellTiter-Glo method, and the concentration IC50 of the compound for inhibiting half maximal growth of cells was obtained.
# A431 cells, purchased from ATCC.
# DMEM medium, fetal bovine serum (FBS), and Penicillin-Streptomycin, purchased from GIBCO.
# as §1, §2
# 1) A431 cells were seeded in a 384-well plate at a density of 800 cells/well with 30 μL/well, and the plate was cultured in a cell incubator for 24 h (37° C., 5% CO2).
# as §3, §4, §5
# (§6) 5) Data analysis was performed using GraphPad Prism software to give the IC50 for compounds.
# [4] = test system: Ba/F3_L858R/T790M/C797S cells; experiment: Ba/F3_L858R/T790M/C797S cell proliferation inhibition assay (CellTiter-Glo); assay type: cell-based; conditions: Mus musculus
# Method: Ba/F3_L858R/T790M/C797S Cell Proliferation Inhibition Assay
# In the assay, the inhibition effect of the compounds on the proliferation of Ba/F3_L858R/T790M/C797S cells was tested by adopting a CellTiter-Glo method, and the concentration IC50 of the compound for inhibiting half maximal growth of cells was obtained.
# Ba/F3_L858R/T790M/C797S cells were constructed by Pharmaron Beijing Co., Ltd.
# 1640 medium, fetal bovine serum (FBS), Penicillin-Streptomyces, and GlutaMAX-I Supplement, purchased from GIBCO.
# as §1, §2
# 1) Ba/F3_L858R/T790M/C797S cells were seeded in a 384-well plate at a density of 700 cells/well with 30 μL/well.
# as §3, §4, §5, §6
# [5] = BaF3, cell proliferation, 72 h, CellTiter-Glo, read-out: Ba/F3 (Del19/T790M/C797S) IC50
# [6] = A-431, cell proliferation, 72 h, CellTiter-Glo, read-out: A431 EGFR WT IC50
# [7] = BaF3, cell proliferation, 72 h, CellTiter-Glo, read-out: Ba/F3 (L858R/T790M/C797S) IC50
# [8] = BaF3, 72 h, read-out: Ba/F3 (Del19/T790M/C797S) IC50(nM)
# [9] = A-431, 72 h, read-out: A431 EGFR WT IC50(nM)
# [10] = BaF3, 72 h, read-out: Ba/F3 (L858R/T790M/C797S) IC50(nM)
# Chain of EGFR WT (wild type EGFR) (P00533 25-1210): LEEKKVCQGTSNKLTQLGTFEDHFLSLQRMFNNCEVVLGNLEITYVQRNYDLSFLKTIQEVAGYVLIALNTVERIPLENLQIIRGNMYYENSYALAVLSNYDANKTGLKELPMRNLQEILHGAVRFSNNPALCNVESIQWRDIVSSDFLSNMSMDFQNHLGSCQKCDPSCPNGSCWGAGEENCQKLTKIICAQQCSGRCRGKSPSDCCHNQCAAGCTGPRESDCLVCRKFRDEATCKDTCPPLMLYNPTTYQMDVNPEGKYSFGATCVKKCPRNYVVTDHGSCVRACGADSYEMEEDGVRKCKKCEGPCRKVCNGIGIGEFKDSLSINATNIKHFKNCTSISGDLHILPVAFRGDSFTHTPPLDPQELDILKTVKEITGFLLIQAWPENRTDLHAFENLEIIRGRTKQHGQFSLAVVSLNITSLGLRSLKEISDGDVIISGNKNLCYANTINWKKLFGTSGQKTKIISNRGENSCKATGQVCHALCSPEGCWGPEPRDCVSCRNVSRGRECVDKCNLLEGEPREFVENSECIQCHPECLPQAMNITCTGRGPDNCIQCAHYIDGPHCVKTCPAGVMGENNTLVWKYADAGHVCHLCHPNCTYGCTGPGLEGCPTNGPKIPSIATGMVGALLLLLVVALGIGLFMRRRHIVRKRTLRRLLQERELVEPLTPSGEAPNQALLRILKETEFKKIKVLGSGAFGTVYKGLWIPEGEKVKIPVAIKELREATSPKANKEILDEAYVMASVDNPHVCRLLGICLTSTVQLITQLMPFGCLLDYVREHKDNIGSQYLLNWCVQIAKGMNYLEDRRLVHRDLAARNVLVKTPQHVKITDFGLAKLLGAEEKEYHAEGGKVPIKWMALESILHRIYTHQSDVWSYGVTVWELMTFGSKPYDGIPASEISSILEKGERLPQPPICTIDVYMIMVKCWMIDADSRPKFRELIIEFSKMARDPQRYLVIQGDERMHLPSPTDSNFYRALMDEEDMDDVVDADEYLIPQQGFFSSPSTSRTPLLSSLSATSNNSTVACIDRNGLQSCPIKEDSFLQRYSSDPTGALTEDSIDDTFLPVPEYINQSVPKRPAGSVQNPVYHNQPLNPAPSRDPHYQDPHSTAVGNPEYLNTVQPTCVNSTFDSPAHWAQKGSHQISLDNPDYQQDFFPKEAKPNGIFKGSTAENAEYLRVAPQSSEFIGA
smiles,measurement,setting,value
COc1cc2c(cc1Nc1ncc(Br)c(Nc3ccccc3P(C)(C)=O)n1)-c1cnn(C)c1CCC2 [Compound 38],IC50,[1],0.01 to 0.05 µM
same,IC50,[2]; [5],10 to 50 nM
same,IC50,[3]; [6],100 to 1000 nM
same,IC50,[4]; [7],50 to 100 nM
CCn1ncc2c1CCN(C)c1cc(OC)c(Nc3ncc(Br)c(Nc4ccccc4P(C)(C)=O)n3)cc1-2 [Compound 39],IC50,[1],0.01 to 0.05 µM
same,IC50,[2]; [8],10 to 50 nM
same,IC50,[3]; [9],100 to 1000 nM
same,IC50,[4]; [10],10 to 50 nM
COc1cc2c(cc1Nc1ncc(Br)c(Nc3ccccc3P(C)(C)=O)n1)-c1cnn(C)c1CC=C2 [Compound 40],IC50,[1],0.01 to 0.05 µM
same,IC50,[2]; [5],< 10 nM
same,IC50,[3]; [6],100 to 1000 nM
same,IC50,[4]; [7],10 to 50 nM
COc1cc2c(cc1Nc1ncc(Br)c(Nc3ccccc3P(C)(C)=O)n1)-c1cnn(C)c1CCN2CCN1CCC(F)CC1 [Compound 41],IC50,[1],0.001 to 0.01 µM
same,IC50,[2]; [5],< 10 nM
same,IC50,[3]; [6],100 to 1000 nM
same,IC50,[4]; [7],< 10 nM
COc1cc2c(cc1Nc1ncc(Br)c(Nc3ccccc3P(C)(C)=O)n1)-c1scnc1CCN2C [Compound 42],IC50,[1],0.001 to 0.01 µM
same,IC50,[2]; [5],< 10 nM
same,IC50,[3]; [6],100 to 1000 nM
same,IC50,[4]; [7],< 10 nM
COc1cc2c(cc1Nc1ncc(Br)c(Nc3ccc(F)cc3P(C)(C)=O)n1)-c1cnn(C)c1CCN2C [Compound 43],IC50,[1],0.001 to 0.01 µM
same,IC50,[2]; [5],< 10 nM
same,IC50,[3]; [6],50 to 100 nM
same,IC50,[4]; [7],< 10 nM
COc1cc2c(cc1Nc1ncc(Br)c(Nc3cccnc3P(C)(C)=O)n1)-c1cnn(C)c1CCN2C [Compound 44],IC50,[1],0.001 to 0.01 µM
same,IC50,[2]; [5],< 10 nM
same,IC50,[3]; [6],100 to 1000 nM
same,IC50,[4]; [7],10 to 50 nM
COc1cc2c(cc1Nc1ncc(Br)c(Nc3ccccc3P(C)(C)=O)n1)-c1cnn(C)c1COC2 [Compound 46],IC50,[1],0.01 to 0.05 µM
same,IC50,[2]; [5],10 to 50 nM
same,IC50,[3]; [6],100 to 1000 nM
same,IC50,[4]; [7],10 to 50 nM
COc1cc2c(cc1Nc1ncc(Br)c(Nc3ccccc3P(C)(C)=O)n1)-c1cnn(C)c1CCN2C1CCN(C)CC1 [Compound 47],IC50,[1],0.001 to 0.01 µM
same,IC50,[2]; [5],< 10 nM
same,IC50,[3]; [6],50 to 100 nM
same,IC50,[4]; [7],10 to 50 nM
COc1cc2c(cc1Nc1ncc(Br)c(Nc3ccccc3P(C)(C)=O)n1)-c1cnnn1CCN2C [Compound 48],IC50,[1],0.01 to 0.05 µM
same,IC50,[2]; [5],< 10 nM
same,IC50,[3]; [6],100 to 1000 nM
same,IC50,[4]; [7],10 to 50 nM
COc1cc2c(cc1Nc1ncc(Br)c(Nc3ccccc3P(C)(C)=O)n1)-c1cnn(C)c1CNC2 [Compound 49],IC50,[1],0.01 to 0.05 µM
same,IC50,[2]; [5],10 to 50 nM
same,IC50,[3]; [6],100 to 1000 nM
same,IC50,[4]; [7],10 to 50 nM
COc1nc2c(cc1Nc1ncc(Br)c(Nc3ccccc3P(C)(C)=O)n1)-c1cnn(C)c1CCN2 [Compound 51],IC50,[1],0.01 to 0.05 µM
same,IC50,[2]; [5],< 10 nM
same,IC50,[3]; [6],100 to 1000 nM
same,IC50,[4]; [7],10 to 50 nM
COc1nc2c(cc1Nc1ncc(Br)c(Nc3ccc4nccnc4c3P(C)(C)=O)n1)-c1cnn(C)c1CCN2 [Compound 52],IC50,[1],0.001 to 0.01 µM
same,IC50,[2]; [5],< 10 nM
same,IC50,[3]; [6],100 to 1000 nM
same,IC50,[4]; [7],< 10 nM
COc1cc2c(cc1Nc1ncc(Br)c(Nc3ccccc3NS(C)(=O)=O)n1)-c1cnn(C)c1CCN2C(C)C [Compound 54],IC50,[1],0.001 to 0.01 µM
same,IC50,[2]; [5],< 10 nM
same,IC50,[3]; [6],100 to 1000 nM
same,IC50,[4]; [7],10 to 50 nM
COc1cc2c(cc1Nc1ncc(Br)c(Nc3ccccc3P(C)(C)=O)n1)-c1cnc(C)n1CCN2C [Compound 55],IC50,[1],0.01 to 0.05 µM
same,IC50,[2]; [5],10 to 50 nM
same,IC50,[3]; [6],100 to 1000 nM
same,IC50,[4]; [7],100 to 1000 nM
COc1cc2c(cc1Nc1ncc(Br)c(Nc3ccccc3P(C)(C)=O)n1)-c1cn(CCN(C)C)nc1CCN2C(C)C [Compound 56],IC50,[1],0.001 to 0.01 µM
same,IC50,[2]; [8],< 10 nM
same,IC50,[3]; [9],100 to 1000 nM
same,IC50,[4]; [10],10 to 50 nM
COc1cc2c(cc1Nc1nc(Nc3ccccc3P(C)(C)=O)c3sccc3n1)-c1cnn(C)c1CCN2C [Compound 58],IC50,[1],0.01 to 0.05 µM
same,IC50,[2]; [5],10 to 50 nM
same,IC50,[3]; [6],> 1000 nM
same,IC50,[4]; [7],10 to 50 nM
COc1cc2c(cc1Nc1nc(Nc3ccc4nccnc4c3P(C)(C)=O)c3cc[nH]c3n1)-c1cnn(C)c1CCN2C [Compound 60],IC50,[1],0.001 to 0.01 µM
same,IC50,[2]; [5],< 10 nM
same,IC50,[3]; [6],10 to 50 nM
same,IC50,[4]; [7],< 10 nM
COc1cc2c(cc1Nc1nc(Nc3ccc4nccnc4c3P(C)(C)=O)c3sccc3n1)-c1cnn(C)c1CCN2C [Compound 61],IC50,[1],0.001 to 0.01 µM
same,IC50,[2]; [5],< 10 nM
same,IC50,[3]; [6],10 to 50 nM
same,IC50,[4]; [7],< 10 nM
COc1cc2c(cc1Nc1ncc(Br)c(Nc3ccccc3P(C)(C)=O)n1)-c1cnn(C)c1CCN2C1CCN(C)CC1F (centres unmarked) [Compound 65],IC50,[1],0.001 to 0.01 µM
same,IC50,[2]; [5],< 10 nM
same,IC50,[3]; [6],100 to 1000 nM
same,IC50,[4]; [7],10 to 50 nM
COc1cc2c(cc1Nc1ncc(Br)c(Nc3ccc4nccnc4c3P(C)(C)=O)n1)-c1cnn(C)c1CNC2 [Compound 71],IC50,[1],0.001 to 0.01 µM
same,IC50,[2]; [5],< 10 nM
same,IC50,[3]; [6],50 to 100 nM
same,IC50,[4]; [7],< 10 nM
COc1cc2c(cc1Nc1ncc(Br)c(Nc3ccc4nccnc4c3P(C)(C)=O)n1)-c1cnn(C)c1CN(C(C)C)C2 [Compound 72],IC50,[1],0.001 to 0.01 µM
same,IC50,[2]; [8],< 10 nM
same,IC50,[3]; [9],50 to 100 nM
same,IC50,[4]; [10],10 to 50 nM
COc1cc2c(cc1Nc1ncc(Br)c(Nc3ccccc3P(C)(C)=O)n1)-c1cnn(C)c1CCN2CC(F)(F)F [Compound 73],IC50,[1],0.01 to 0.05 µM
same,IC50,[2]; [5],10 to 50 nM
same,IC50,[3]; [6],100 to 1000 nM
same,IC50,[4]; [7],10 to 50 nM
